Laboratory results from the supplement of paper PMC10307832.

What was measured:
Test in all cases: relative viability (nuclei count vs DMSO), 5 days (fraction); higher = more cells survive
[1] = tested on: A-427
Summary of the method: (§1)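 After 5 days of treatment, lung cancer cells in 1536-well plates were fixed and stained in a single step (final 0.05% Triton X-100, 1% formaldehyde, 1 ug/ml Hoechst) and their nuclei counted on 4× images. Treatment had been applied by pin tool the day after seeding as one drug alone or as a fixed anchor-drug dose with five library-drug doses (not always all listed) in √10 steps. Relative viability is the nuclei count of treated wells divided by that of vehicle wells, and values are medians of duplicate plates.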

[2] = tested on: ABC-1
Summary of the method: as §1

[3] = tested on: EMC-BAC-2
Summary of the method: as §1

[4] = tested on: HARA
Summary of the method: as §1

[5] = tested on: HOP-62
Summary of the method: as §1

[6] = tested on: LK-2
Summary of the method: as §1

[7] = tested on: LXF-289
Summary of the method: as §1

[8] = tested on: NCI-H1944
Summary of the method: as §1

[9] = tested on: NCI-H1993
Summary of the method: as §1

[10] = tested on: NCI-H2009
Summary of the method: as §1

[11] = tested on: NCI-H2170
Summary of the method: as §1

[12] = tested on: NCI-H2228
Summary of the method: as §1

[13] = tested on: NCI-H3122
Summary of the method: as §1

[14] = tested on: NCI-H322M
Summary of the method: as §1

[15] = tested on: NCI-H522
Summary of the method: as §1

[16] = tested on: NCI-H596
Summary of the method: as §1

[17] = tested on: NCI-H727
Summary of the method: as §1

[18] = tested on: PC-3 [JPC-3]
Summary of the method: as §1

[19] = tested on: SK-MES-1
Summary of the method: as §1

[20] = tested on: SW 1573
Summary of the method: as §1

[21] = tested on: SW 900
Summary of the method: as §1

O=c1cc(N2CCOCC2)oc2c(-c3cccc4c3sc3ccccc34)cccc12 + O=C(CCCCCCC(=O)Nc1ccccc1)NO [Vorinostat] (partner 1 µM)
relative viability ([1]; first compound 0.01 µM): 0.844
relative viability ([1]; first compound 0.03162 µM): 0.95
relative viability ([1]; first compound 0.1 µM): 0.843
relative viability ([1]; first compound 0.3162 µM): 0.82
relative viability ([1]; first compound 1 µM): 0.86
relative viability ([2]; first compound 0.01 µM): 1.36
relative viability ([2]; first compound 0.03162 µM): 1.58
relative viability ([2]; first compound 0.1 µM): 1.31
relative viability ([2]; first compound 0.3162 µM): 1.17
relative viability ([2]; first compound 1 µM): 1.02
relative viability ([3]; first compound 0.01 µM): 0.458
relative viability ([3]; first compound 0.03162 µM): 0.512
relative viability ([3]; first compound 0.1 µM): 0.533
relative viability ([3]; first compound 0.3162 µM): 0.496
relative viability ([3]; first compound 1 µM): 0.198
relative viability ([4]; first compound 0.01 µM): 0.409
relative viability ([4]; first compound 0.03162 µM): 0.588
relative viability ([4]; first compound 0.1 µM): 0.543
relative viability ([4]; first compound 0.3162 µM): 0.546
relative viability ([4]; first compound 1 µM): 0.46
relative viability ([5]; first compound 0.01 µM): 0.554
relative viability ([5]; first compound 0.03162 µM): 0.775
relative viability ([5]; first compound 0.1 µM): 0.58
relative viability ([5]; first compound 0.3162 µM): 0.605
relative viability ([5]; first compound 1 µM): 0.685
relative viability ([6]; first compound 0.01 µM): 0.343
relative viability ([6]; first compound 0.03162 µM): 0.267
relative viability ([6]; first compound 0.1 µM): 0.345
relative viability ([6]; first compound 0.3162 µM): 0.233
relative viability ([6]; first compound 1 µM): 0.27
relative viability ([7]; first compound 0.01 µM): 0.797
relative viability ([7]; first compound 0.03162 µM): 0.789
relative viability ([7]; first compound 0.1 µM): 0.693
relative viability ([7]; first compound 0.3162 µM): 0.741
relative viability ([7]; first compound 1 µM): 0.827
relative viability ([8]; first compound 0.01 µM): 0.529
relative viability ([8]; first compound 0.03162 µM): 0.612
relative viability ([8]; first compound 0.1 µM): 0.503
relative viability ([8]; first compound 0.3162 µM): 0.48
relative viability ([8]; first compound 1 µM): 0.616
relative viability ([9]; first compound 0.01 µM): 1.21
relative viability ([9]; first compound 0.03162 µM): 0.769
relative viability ([9]; first compound 0.1 µM): 0.94
relative viability ([9]; first compound 0.3162 µM): 0.851
relative viability ([9]; first compound 1 µM): 0.697
relative viability ([10]; first compound 0.01 µM): 0.715
relative viability ([10]; first compound 0.03162 µM): 0.727
relative viability ([10]; first compound 0.1 µM): 0.696
relative viability ([10]; first compound 0.3162 µM): 0.761
relative viability ([10]; first compound 1 µM): 0.7
relative viability ([11]; first compound 0.01 µM): 0.804
relative viability ([11]; first compound 0.03162 µM): 0.882
relative viability ([11]; first compound 0.1 µM): 0.697
relative viability ([11]; first compound 0.3162 µM): 0.784
relative viability ([11]; first compound 1 µM): 0.824
relative viability ([12]; first compound 0.01 µM): 0.669
relative viability ([12]; first compound 0.03162 µM): 0.896
relative viability ([12]; first compound 0.1 µM): 0.562
relative viability ([12]; first compound 0.3162 µM): 0.651
relative viability ([12]; first compound 1 µM): 0.722
relative viability ([13]; first compound 0.01 µM): 0.933
relative viability ([13]; first compound 0.03162 µM): 1.02
relative viability ([13]; first compound 0.1 µM): 1.04
relative viability ([13]; first compound 0.3162 µM): 0.895
relative viability ([13]; first compound 1 µM): 1.02
relative viability ([14]; first compound 0.01 µM): 0.826
relative viability ([14]; first compound 0.03162 µM): 0.92
relative viability ([14]; first compound 0.3162 µM): 0.871
relative viability ([14]; first compound 1 µM): 0.678
relative viability ([15]; first compound 0.01 µM): 0.986
relative viability ([15]; first compound 0.03162 µM): 0.932
relative viability ([15]; first compound 0.1 µM): 0.864
relative viability ([15]; first compound 0.3162 µM): 0.873
relative viability ([15]; first compound 1 µM): 0.666
relative viability ([16]; first compound 0.01 µM): 0.564
relative viability ([16]; first compound 0.03162 µM): 0.586
relative viability ([16]; first compound 0.1 µM): 0.581
relative viability ([16]; first compound 0.3162 µM): 0.626
relative viability ([16]; first compound 1 µM): 0.573
relative viability ([17]; first compound 0.01 µM): 1.12
relative viability ([17]; first compound 0.03162 µM): 1.31
relative viability ([17]; first compound 0.1 µM): 0.626
relative viability ([17]; first compound 0.3162 µM): 1.04
relative viability ([17]; first compound 1 µM): 1.19
relative viability ([18]; first compound 0.01 µM): 0.76
relative viability ([18]; first compound 0.03162 µM): 0.774
relative viability ([18]; first compound 0.1 µM): 0.859
relative viability ([18]; first compound 0.3162 µM): 0.896
relative viability ([18]; first compound 1 µM): 0.401
relative viability ([19]; first compound 0.01 µM): 1.04
relative viability ([19]; first compound 0.03162 µM): 1.06
relative viability ([19]; first compound 0.1 µM): 1.04
relative viability ([19]; first compound 0.3162 µM): 1.04
relative viability ([19]; first compound 1 µM): 1.09
relative viability ([20]; first compound 0.01 µM): 0.572
relative viability ([20]; first compound 0.03162 µM): 0.767
relative viability ([20]; first compound 0.1 µM): 0.55
relative viability ([20]; first compound 0.3162 µM): 0.614
relative viability ([20]; first compound 1 µM): 0.592
relative viability ([21]; first compound 0.03162 µM): 0.508
relative viability ([21]; first compound 0.1 µM): 0.364
relative viability ([21]; first compound 0.3162 µM): 0.544
relative viability ([21]; first compound 1 µM): 0.359
